EP4559908A1, “HETEROARYL DERIVATIVE COMPOUND AND USE THEREOF” (S2CBio Inc., priority 2022, dated 2024)
Like-named read-outs stand apart in the source and are kept apart here.

Target: T1, human ANO6 (variant 5) (Homo sapiens, UniProt Q4KMQ2)
T1 construct: expressed in transfected cells; host or cells: Fischer rat thyroid (FRT) cells
T1 sequence (Q4KMQ2 1-931 isoform Q4KMQ2-2): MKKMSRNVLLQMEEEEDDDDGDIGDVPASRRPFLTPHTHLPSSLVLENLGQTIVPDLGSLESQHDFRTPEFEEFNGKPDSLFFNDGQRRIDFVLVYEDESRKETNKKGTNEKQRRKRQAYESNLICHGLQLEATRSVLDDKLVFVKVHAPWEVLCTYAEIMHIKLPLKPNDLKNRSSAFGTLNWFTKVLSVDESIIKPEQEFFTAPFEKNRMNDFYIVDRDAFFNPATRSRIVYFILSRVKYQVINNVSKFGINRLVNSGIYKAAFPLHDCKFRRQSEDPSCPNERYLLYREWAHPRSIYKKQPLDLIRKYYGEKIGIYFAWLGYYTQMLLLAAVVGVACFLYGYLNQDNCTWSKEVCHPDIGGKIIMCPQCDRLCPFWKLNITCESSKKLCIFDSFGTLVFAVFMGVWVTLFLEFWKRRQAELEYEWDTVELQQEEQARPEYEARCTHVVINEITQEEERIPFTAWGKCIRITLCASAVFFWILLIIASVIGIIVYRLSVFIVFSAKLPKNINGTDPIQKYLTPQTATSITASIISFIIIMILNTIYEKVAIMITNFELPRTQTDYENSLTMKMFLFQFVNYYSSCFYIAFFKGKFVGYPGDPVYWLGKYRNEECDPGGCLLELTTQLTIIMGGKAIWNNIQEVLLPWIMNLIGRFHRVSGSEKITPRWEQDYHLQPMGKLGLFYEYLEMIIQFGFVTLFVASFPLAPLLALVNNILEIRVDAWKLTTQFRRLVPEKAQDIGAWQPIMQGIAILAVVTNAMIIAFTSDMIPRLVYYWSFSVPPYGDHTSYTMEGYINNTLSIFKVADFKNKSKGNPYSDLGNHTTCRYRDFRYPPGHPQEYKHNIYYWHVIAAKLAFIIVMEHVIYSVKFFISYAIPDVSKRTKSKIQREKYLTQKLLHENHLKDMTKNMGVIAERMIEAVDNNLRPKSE
Test: Lact C2 assay (measuring phosphatidylserine externalization scramblase function)
Format: cell-based
Conditions: FRT, FRT cells expressing human ANO6 (variant 5), ionomycin 10 µM, Lact-C2-GFP fluorescence, average of three tests; for inhibition at 0.05 µM: compound 50 nM, read-out: % Inhibition 50 nM
Outline: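 Cells were pretreated 10 min with compound (50 nM, 100 nM, 1 µM; 1% DMSO), then given 10 µM ionomycin for 10 min. Surface phosphatidylserine was stained with 500 nM Lact-C2-GFP (10 min, 37 °C), fixed and imaged. Inhibition was scaled between untreated (100%) and ionomycin-alone (0%) wells.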

[1] = compound 1 µM, read-out: % Inhibition 1 µM

Row | Compound | inhibition at 1 µM [1] [%] | inhibition at 0.05 µM [%] | inhibition at 1 µM (read-out: % Inhibition 1 µM, compound 1 µM) [%]
1 | COc1cc(-c2cccnn2)ccc1Nc1cccc(-c2nc3ccccc3[nH]2)c1 [Example 210, N-(3-(1H-benzo[d]imidazol-2-yl)phenyl)-2-methoxy-4-(pyridazin-3-yl)aniline] | 30 to 60 | – | –
2 | CN(C)c1ccc2nc(-c3cccc(Nc4ccc(-c5cccnn5)cc4)c3)[nH]c2c1 [Example 217, N,N-dimethyl-2-(3-((4-(pyridazin-3-yl)phenyl)amino)phenyl)-1H-benzo[d]imidazol-6-amine] | > 60 | 30 to 60 | –
3 | Brc1cc2[nH]c(-c3cccc(Nc4ccc(-c5cccnn5)cc4)c3)nc2cn1 [Example 218, 3-(6-bromo-1H-imidazo[4,5-c]pyridin-2-yl)-N-(4-(pyridazin-3-yl)phenyl)aniline] | – | 30 to 60 | –
4 | c1cc(Nc2ccc(-c3cccnn3)cc2)cc(-c2nc3ncccc3[nH]2)c1 [Example 219, 3-(1H-imidazo[4,5-b]pyridin-2-yl)-N-(4-(pyridazin-3-yl)phenyl)aniline] | > 60 | – | –
5 | c1ccc(COc2ccc3nc(-c4cccc(Nc5ccc(-c6cccnn6)cc5)c4)[nH]c3c2)cc1 [Example 222, 3-(6-(benzyloxy)-1H-benzo[d]imidazol-2-yl)-N-(4-(pyridazin-3-yl)phenyl)aniline] | > 60 | > 60 | –
6 | COc1ccc2nc(-c3cccc(Nc4ccc(-c5cccnn5)cc4)c3)[nH]c2c1 [Example 223, 3-(6-methoxy-1H-benzo[d]imidazol-2-yl)-N-(4-(pyridazin-3-yl)phenyl)aniline] | > 60 | > 60 | –
7 | Clc1cc2nc(-c3cccc(Nc4ccc(-c5cccnn5)cc4)c3)[nH]c2cc1Cl [Example 225, 3-(5,6-dichloro-1H-benzo[d]imidazol-2-yl)-N-(4-(pyridazin-3-yl)phenyl)aniline] | – | > 60 | –
8 | Clc1ccc2nc(-c3cccc(Nc4ccc(-c5cccnn5)cc4)c3)[nH]c2c1 [Example 226, 3-(6-chloro-1H-benzo[d]imidazol-2-yl)-N-(4-(pyridazin-3-yl)phenyl)aniline] | – | > 60 | –
9 | O=[N+]([O-])c1ccc2nc(-c3cccc(Nc4ccc(-c5cccnn5)cc4)c3)[nH]c2c1 [Example 227, 3-(6-nitro-1H-benzo[d]imidazol-2-yl)-N-(4-(pyridazin-3-yl)phenyl)aniline] | > 60 | > 60 | –
10 | c1ccc(CNc2ccc3nc(-c4cccc(Nc5ccc(-c6cccnn6)cc5)c4)[nH]c3c2)cc1 [Example 229, N-benzyl-2-(3-((4-(pyridazin-3-yl)phenyl)amino)phenyl)-1H-benzo[d]imidazol-6-amine] | > 60 | – | –
11 | FC(F)(F)Oc1ccc2nc(-c3cccc(Nc4ccc(-c5cccnn5)cc4)c3)[nH]c2c1 [Example 230, N-(4-(pyridazin-3-yl)phenyl)-3-(6-(trifluoromethoxy)-1H-benzo[d]imidazol-2-yl)aniline] | > 60 | > 60 | –
12 | N#Cc1ccc2nc(-c3cccc(Nc4ccc(-c5cccnn5)cc4)c3)[nH]c2c1 [Example 231, 2-(3-((4-(pyridazin-3-yl)phenyl)amino)phenyl)-1H-benzo[d]imidazole-6-carbonitrile] | > 60 | – | –
13 | FC(F)(F)Oc1cc2[nH]c(-c3cccc(Nc4ccc(-c5cccnn5)cc4)c3)nc2cn1 [Example 232, N-(4-(pyridazin-3-yl)phenyl)-3-(6-(trifluoromethoxy)-1H-imidazo[4,5-c]pyridin-2-yl)aniline] | > 60 | > 60 | –
14 | FC(F)(F)c1cnc2nc(-c3cccc(Nc4ccc(-c5cccnn5)cc4)c3)[nH]c2c1 [Example 234, N-(4-(pyridazin-3-yl)phenyl)-3-(6-(trifluoromethyl)-1H-imidazo[4,5-b]pyridin-2-yl)aniline] | > 60 | 30 to 60 | –
15 | FC(F)(F)c1ccc2[nH]c(-c3cccc(Nc4ccc(-c5cccnn5)cc4)c3)nc2n1 [Example 235, N-(4-(pyridazin-3-yl)phenyl)-3-(5-(trifluoromethyl)-1H-imidazo[4,5-b]pyridin-2-yl)aniline] | > 60 | 30 to 60 | –
16 | FC(F)(F)c1cc2[nH]c(-c3cccc(Nc4ccc(-c5ccccn5)cn4)c3)nc2cn1 [Example 238, N-(3-(6-(trifluoromethyl)-1H-imidazo [4,5-c]pyridin-2-yl)phenyl)-[2,3'-bipyridin]-6'-amine] | > 60 | > 60 | –
17 | FC(F)(F)c1cc2[nH]c(-c3cccc(Nc4ncc(-c5ccccn5)cn4)c3)nc2cn1 [Example 242, 5-(pyridin-2-yl)-N-(3-(6-(trifluoromethyl)-1H-imidazo[4,5-c]pyridin-2-yl)phenyl)pyrimidin-2-amine] | > 60 | > 60 | –
18 | FC(F)(F)c1cnc2nc(-c3cccc(Nc4ncc(-c5ccccn5)cn4)c3)[nH]c2c1 [Example 243, 5-(pyridin-2-yl)-N-(3-(6-(trifluoromethyl)-1H-imidazo[4,5-b]pyridin-2-yl)phenyl)pyrimidin-2-amine] | > 60 | 30 to 60 | –
19 | FC(F)(F)c1ccc2[nH]c(-c3cccc(Nc4ncc(-c5ccccn5)cn4)c3)nc2n1 [Example 244, 5-(pyridin-2-yl)-N-(3-(5-(trifluoromethyl)-1H-imidazo[4,5-b]pyridin-2-yl)phenyl)pyrimidin-2-amine] | > 60 | 30 to 60 | –
20 | Fc1ccc2nc(-c3cccc(Nc4ncc(-c5ncccn5)cn4)c3)[nH]c2c1 [Example 247, N-(3-(6-fluoro-1H-benzo[d]imidazol-2-yl)phenyl)-[2,5'-bipyrimidin]-2'-amine] | 30 to 60 | – | –
21 | Fc1cccnc1-c1ccc(Nc2cccc(-c3nc4ccc(C(F)(F)F)cc4[nH]3)c2)cc1 [Example 251, N-(4-(3-fluoropyridin-2-yl)phenyl)-3-(6-(trifluoromethyl)-1H-benzo[d]imidazol-2-yl)aniline] | > 60 | – | –
22 | Fc1cccc(-c2ccc(Nc3cccc(-c4nc5ccc(C(F)(F)F)cc5[nH]4)c3)cc2)n1 [Example 252, N-(4-(6-fluoropyridin-2-yl)phenyl)-3-(6-(trifluoromethyl)-1H-benzo[d]imidazol-2-yl)aniline] | > 60 | > 60 | –
23 | Fc1ccc(-c2ccc(Nc3cccc(-c4nc5ccc(C(F)(F)F)cc5[nH]4)c3)cc2)nc1 [Example 253, N-(4-(5-fluoropyridin-2-yl)phenyl)-3-(6-(trifluoromethyl)-1H-benzo[d]imidazol-2-yl)aniline] | > 60 | > 60 | –
24 | FC(F)(F)c1cc2[nH]c(-c3cccc(Nc4ccc(-c5cccnn5)cn4)c3)nc2cn1 [Example 254, 5-(pyridazin-3-yl)-N-(3-(6-(trifluoromethyl)-1H-imidazo[4,5-c]pyridin-2-yl)phenyl)pyridin-2-amine] | > 60 | > 60 | –
25 | c1ccc(-c2ccc(Nc3cccc(-c4nc5ccccc5[nH]4)c3)nn2)nc1 [Example 255, N-(3-(1H-benzo[d]imidazol-2-yl)phenyl)-6-(pyridin-2-yl)pyrimidin-3-amine] | – | – | > 60
26 | FC(F)(F)c1ccc2nc(-c3cccc(Nc4ccc(-c5ccccn5)nn4)c3)[nH]c2c1 [Example 256, 6-(pyridin-2-yl)-N-(3-(6-(trifluoromethyl)-1H-benzo[d]imidazol-2-yl)phenyl)pyridazin-3-amine] | > 60 | – | –
27 | c1cc(Nc2ccc(-c3ccncn3)nn2)cc(-c2nc3ccccc3[nH]2)c1 [Example 257, N-(3-(1H-benzo[d]imidazol-2-yl)phenyl)-6-(pyrimidin-4-yl)pyridazin-3-amine] | 30 to 60 | – | –
28 | Fc1cccc(-c2cnc(Nc3cccc(-c4nc5ccc(C(F)(F)F)cc5[nH]4)c3)nc2)n1 [Example 258, 5-(6-fluoropyridin-2-yl)-N-(3-(6-(trifluoromethyl)-1H-benzo[d]imidazol-2-yl)phenyl)pyrimidin-2-amine] | > 60 | > 60 | –
29 | Fc1cccc(-c2cnc(Nc3cccc(-c4nc5ccccc5[nH]4)c3)nc2)n1 [Example 259, N-(3-(1H-benzo[d]imidazol-2-yl)phenyl)-5-(6-fluoropyridin-2-yl) pyrimidin-2-amine] | > 60 | 30 to 60 | –
